9 molecules from PubChem BioAssay (NCI) can be followed below.

Among the test systems are SK-OV-3 ovarian; SW-620 colon; MOLT-4 leukemia; UACC-62 melanoma; KM12 colon; SNB-75 CNS; OVCAR-3 ovarian; DU-145 prostate; OVCAR-4 ovarian; EKVX NSCLC.
Assay in all cases: NCI anticancer screen, dose series, 48 h

Where “and” joins values, the source holds several entries; their conditions need not be identical. Identical values can stand only once.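 48-hour exposure; five concentrations; linearly interpolated endpoints. GI50 is the concentration that inhibits growth by half. TGI is the concentration that stops growth completely.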 Where only a bound is given, the exact number is not on record here.

On to `CC(CCC=O)CCOCc1ccccc1` (configuration not stated), for which the TGI in the assay on SK-OV-3 ovarian is over 100 µM; in the assay on SW-620 colon, over 100 µM; in the assay on MOLT-4 leukemia, over 61.6 µM; in the assay with UACC-62 melanoma, over 100 µM; in the assay on KM12 colon, over 100 µM; in the assay on SNB-75 CNS, over 100 µM. The TGI with OVCAR-3 ovarian, with DU-145 prostate, in the assay on OVCAR-4 ovarian and with EKVX NSCLC was over 100 µM in each case.
Consider `O=c1c2sc(=S)n(-c3ccc(F)cc3)c2ncn1Cc1ccc(F)cc1F`, for which the GI50 in the assay on SK-OV-3 ovarian is over 100 µM; in the assay with SW-620 colon, over 100 µM; in the assay on MOLT-4 leukemia, over 100 µM; with UACC-62 melanoma, over 100 µM; in the assay on KM12 colon it was over 100 µM; in the assay with SNB-75 CNS it was 94 µM. For the same molecule, the GI50 in the assay on OVCAR-3 ovarian, with DU-145 prostate, in the assay on OVCAR-4 ovarian and in the assay on EKVX NSCLC was over 100 µM in each case. For the same molecule, the TGI in the assay on SK-OV-3 ovarian, in the assay with SW-620 colon, with MOLT-4 leukemia, in the assay on UACC-62 melanoma, with KM12 colon and with SNB-75 CNS was over 100 µM each time. The TGI in the assay with OVCAR-3 ovarian, in the assay with DU-145 prostate, in the assay with OVCAR-4 ovarian and in the assay on EKVX NSCLC was over 100 µM in each case.
Turning to `CC(C)=CCNc1ncnc2c1ncn2C1OC(CO)C(O)C1O` (configuration not stated), the GI50 in the assay with SK-OV-3 ovarian was 1.75 µM; in the assay on SW-620 colon, 0.725 µM; with MOLT-4 leukemia, 0.457 µM; in the assay on KM12 colon it was 2.74 µM; with SNB-75 CNS, 2.52 µM; in the assay on OVCAR-3 ovarian, 0.373 µM. For the same molecule, the GI50 was 0.277 µM in the assay on DU-145 prostate, 0.793 µM with OVCAR-4 ovarian and 7.79 µM in the assay with EKVX NSCLC. Moreover, the TGI is 33.5 µM in the assay with SK-OV-3 ovarian; 24.7 µM with SW-620 colon; 3.82 µM with MOLT-4 leukemia; over 1000 µM with UACC-62 melanoma; over 630 µM in the assay on KM12 colon; 55.9 µM in the assay with SNB-75 CNS. In addition, the TGI is 1.1 µM in the assay on OVCAR-3 ovarian, 0.943 µM with DU-145 prostate, over 1000 µM with OVCAR-4 ovarian and over 1000 µM with EKVX NSCLC.
Take `CC(O)CCC(=O)c1ccoc1` (configuration not stated): the TGI was over 7940 µM in the assay with SK-OV-3 ovarian; over 10000 µM in the assay on SW-620 colon; over 9430 µM with MOLT-4 leukemia; over 10000 µM in the assay with UACC-62 melanoma; over 8110 µM in the assay with KM12 colon; 9650 µM with SNB-75 CNS. Further, the TGI in the assay with OVCAR-3 ovarian was 9960 µM; in the assay with DU-145 prostate, over 10000 µM; in the assay on OVCAR-4 ovarian, over 7940 µM; in the assay with EKVX NSCLC, over 9740 µM.
Consider `O=C(OC(CNc1cc(=O)n(Cc2ccccc2)c(=O)n1Cc1ccccc1)CN1CCCC1)c1ccccc1` (configuration not stated), for which the GI50 in the assay on SK-OV-3 ovarian is over 100 µM; in the assay with SW-620 colon, over 100 µM; in the assay with MOLT-4 leukemia, over 100 µM; with UACC-62 melanoma, 89.4 µM; with KM12 colon, over 100 µM; in the assay on SNB-75 CNS it was 16.5 µM. In addition, the GI50 was over 100 µM in the assay on OVCAR-3 ovarian, 1.9 µM in the assay with DU-145 prostate, over 100 µM in the assay with OVCAR-4 ovarian and over 100 µM in the assay on EKVX NSCLC. Also, the TGI with SK-OV-3 ovarian, with SW-620 colon, in the assay with MOLT-4 leukemia, with UACC-62 melanoma, in the assay with KM12 colon and with SNB-75 CNS was over 100 µM each time. Also, the TGI in the assay with OVCAR-3 ovarian, in the assay on DU-145 prostate, in the assay with OVCAR-4 ovarian and with EKVX NSCLC was over 100 µM throughout.
For `C=C1C(=O)O[C@@H]2C[C@@H]1CC/C(C)=C/CC/C(C)=C/CC[C@@]2(C)O`, the GI50 was 46.6 µM in the assay on SK-OV-3 ovarian; 25.3 µM with SW-620 colon; 3.72 µM in the assay with MOLT-4 leukemia; 14 µM with UACC-62 melanoma; 3.31 µM in the assay on KM12 colon; 26.4 µM in the assay with SNB-75 CNS. Further, the GI50 in the assay on OVCAR-3 ovarian is 5.59 µM; with DU-145 prostate, 14 µM; in the assay on OVCAR-4 ovarian, 34.6 µM; in the assay on EKVX NSCLC it was 23.5 µM. In addition, the TGI in the assay on SK-OV-3 ovarian was over 100 µM; with SW-620 colon it was 52.5 µM; in the assay with MOLT-4 leukemia, 18 µM; in the assay on UACC-62 melanoma, 29.3 µM; with KM12 colon, 13.2 µM; in the assay with SNB-75 CNS, 47.4 µM. The TGI is 18.7 µM with OVCAR-3 ovarian, 30.2 µM in the assay with DU-145 prostate, over 100 µM in the assay with OVCAR-4 ovarian and 48.9 µM in the assay on EKVX NSCLC.
Take `O=C1/C(=C/c2ccc(Br)cc2)COc2ccc(O)c(O)c21`: the GI50 in the assay on SK-OV-3 ovarian is 2.63 µM; in the assay on SW-620 colon it was 0.671 µM; with MOLT-4 leukemia, 0.431 µM; in the assay on UACC-62 melanoma, 1.07 µM; in the assay on KM12 colon, 1.11 µM; in the assay on SNB-75 CNS, 1.23 µM. For the same molecule, the GI50 was 0.493 µM with OVCAR-3 ovarian, 1.31 µM in the assay with DU-145 prostate, 1.31 µM with OVCAR-4 ovarian and 1.45 µM in the assay with EKVX NSCLC. Also, the TGI with SK-OV-3 ovarian was 11.6 µM; in the assay with SW-620 colon, 2.22 µM; in the assay with MOLT-4 leukemia, over 100 µM; in the assay on UACC-62 melanoma, 2.4 µM; in the assay on KM12 colon, 3.35 µM; with SNB-75 CNS, 3.01 µM. The TGI was found to be 1.56 µM with OVCAR-3 ovarian, 2.9 µM in the assay with DU-145 prostate, 2.59 µM in the assay with OVCAR-4 ovarian and 3.14 µM in the assay with EKVX NSCLC.
Take `C=COCCCOc1ccccc1`: the GI50 with SK-OV-3 ovarian, in the assay with UACC-62 melanoma, with SNB-75 CNS and with DU-145 prostate was over 100 µM each time. For the same molecule, the TGI in the assay on SK-OV-3 ovarian, in the assay on SW-620 colon, in the assay on MOLT-4 leukemia, with UACC-62 melanoma, in the assay with KM12 colon and in the assay on SNB-75 CNS was over 100 µM each time. In addition, the TGI with OVCAR-3 ovarian, in the assay with DU-145 prostate, with OVCAR-4 ovarian and in the assay on EKVX NSCLC was over 100 µM throughout.
As for `O/N=C/C1C(OCc2ccccc2)C(OCc2ccccc2)C(OCc2ccccc2)CN1Cc1ccccc1` (configuration not stated), the GI50 is 22.7 µM and > 100 µM with SK-OV-3 ovarian; 14.4 µM and 2.86 µM with KM12 colon; 11.5 µM and > 100 µM in the assay on SNB-75 CNS; 16.9 µM and 7.69 µM in the assay on OVCAR-3 ovarian. Besides, the TGI in the assay on SK-OV-3 ovarian was 51.3 µM and > 100 µM; with SW-620 colon, over 100 µM; with MOLT-4 leukemia, 31.4 µM; in the assay with UACC-62 melanoma it was 30.5 µM and > 100 µM; with KM12 colon, 47.2 µM and 19.6 µM; in the assay on SNB-75 CNS, 33.1 µM and > 100 µM. Moreover, the TGI in the assay on OVCAR-3 ovarian was 40.2 µM and > 100 µM; with DU-145 prostate, over 100 µM; in the assay with OVCAR-4 ovarian it was over 100 µM; with EKVX NSCLC it was over 100 µM.
